Laboratory results: patent US20240270741A1 (Cogent Biosciences, Inc., priority 2023, published 2024)

The compounds below were run against FGFR2 (Homo sapiens, UniProt P21802) (assay: FGFR wild type enzyme assay (HTRF KinEASE-TK), FGFR2). Conditions: Enz FGFR2 (nM), FGFR2 wild type enzyme.
FGFR2, sequence (P21802 399-821 limits assumed): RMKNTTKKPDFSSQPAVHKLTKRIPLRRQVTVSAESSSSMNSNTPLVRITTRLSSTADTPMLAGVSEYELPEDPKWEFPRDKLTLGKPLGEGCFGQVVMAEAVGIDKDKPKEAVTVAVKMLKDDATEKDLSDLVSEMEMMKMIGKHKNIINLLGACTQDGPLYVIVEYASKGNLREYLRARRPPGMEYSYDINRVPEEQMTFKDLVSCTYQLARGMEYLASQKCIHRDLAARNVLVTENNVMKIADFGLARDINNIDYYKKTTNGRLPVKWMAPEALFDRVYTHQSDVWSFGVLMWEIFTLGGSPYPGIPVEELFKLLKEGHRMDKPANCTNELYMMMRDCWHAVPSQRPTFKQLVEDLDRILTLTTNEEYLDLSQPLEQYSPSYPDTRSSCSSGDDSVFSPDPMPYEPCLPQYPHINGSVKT
For CC(=O)N1CC[C@]2(CC[C@@H](n3ncc(-c4cc(Sc5ncccc5F)c5c(C#N)cnn5c4)c3C)CC2)C1 [Example 225, 6-(1-((5r,8r)-2-acetyl-2-azaspiro[4.5]decan-8-yl)-5-methyl-1H-pyrazol-4-y)-4-((3-fluoropyridin-2-yl)thio)pyrazolo[1,5-a]pyridine-3-carbonitrile], the IC50 was 1 nM. Compound Cc1c(-c2cc(Sc3ncccc3F)c3c(C#N)cnn3c2)cnn1[C@@H]1C[C@H]2CNC[C@H]2C1 [Example 226, 4-((3-fluoropyridin-2-yl)thio)-6-(5-methyl-1-((3sR,5s,6aS)-octahydrocyclopenta[c]pyr-rol-5-yl)-1H-pyrazol-4-yl)pyrazolo[1,5-a]pyridine-3-carbonitrile] has an IC50 of 1 nM. With CC(=O)N1CC[C@]2(CC[C@H](n3ncc(-c4cc(Sc5ncccc5F)c5c(C#N)cnn5c4)c3C)CC2)C1 [Example 227, 6-(1-((5s,8s)-2-acetyl-2-azaspiro[4.5]decan-8-yl)-5-methyl-1H-pyrazol-4-yl)-4-((3-fluoropyridin-2-yl)thio)pyrazolo[1,5-a]pyridine-3-carbonitrile] the IC50 was 1 nM. Compound Cc1c(-c2cc(Sc3ncccc3F)c3c(C#N)cnn3c2)cnn1[C@H]1CC[C@@H](NC(=O)CO)CC1 [Example 228, N-((1s,4s)-4-(4-(3-cyano-4-((3-fluoropyridin-2-yl)thio)pyrazolo[1,5-a]pyridin-6-yl)-5-methyl-1H-pyrazol-1-yl)cyclohexyl)-2-hydroxyacetamide] has an IC50 of 1 nM. Compound Cc1c(-c2cc(Sc3ncc(F)cc3F)c3c(C#N)cnn3c2)cnn1[C@H]1CCCN(C(=O)CO)C1 [Example 229, (S)-4-((3,5-difluoropyridin-2-yl)thio)-6-(1-(1-(2-hydroxyacetyl)piperidin-3-yl)-5-methyl-1H-pyrazol-4-yl)pyrazolo[1,5-a]pyridine-3-carbonitrile] has an IC50 of 3 nM. Cc1c(-c2cc(Sc3ccc(F)cc3C#N)c3c(C#N)cnn3c2)cnn1C1CCN(C)CC1 [Example 230, 4-((2-cyano-4-fluorophenyl)thio)-6-(5-methyl-1-(1-methylpiperidin-4-yl)-1H-pyrazol-4-yl)pyrazolo[1,5-a]pyridine-3-carbonitrile] gave an IC50 of 1 nM. CC(=O)N(C)[C@H]1CC[C@@H](n2ncc(-c3cc(Sc4ccccc4C#N)c4c(C#N)cnn4c3)c2C)CC1 [Example 231, N-((1s,4s)-4-(4-(3-cyano-4-((2-cyanophenyl)thio)pyrazolo [1,5-a]pyridin-6-yl)-5-methyl-1H-pyrazol-1-yl)cyclohexyl)-N-methylacetamide] was tested, and the IC50 was 1 nM. For Cc1c(-c2cc(Sc3ccccc3C#N)c3c(C#N)cnn3c2)cnn1C[C@@H]1CNCCO1 [Example 232, (S)-4-((2-cyanophenyl)thio)-6-(5-methyl-1-(morpholin-2-ylmethyl)-1H-pyrazol-4-yl)pyrazolo[1,5-a]pyridine-3-carbonitrile], the IC50 was 3.5 nM. Compound Cc1c(-c2cc(Sc3ncccc3F)c3c(C#N)cnn3c2)cnn1C[C@@H]1CNCCO1 [Example 233, (S)-4-((3-fluoropyridin-2-yl)thio)-6-(5-methyl-1-(morpholin-2-ylmethyl)-1H-pyrazol-4-yl)pyrazolo[1,5-a]pyridine-3-carbonitrile] has an IC50 of 6 nM. Compound CC(=O)N1CCO[C@H](Cn2ncc(-c3cc(Sc4ncccc4F)c4c(C#N)cnn4c3)c2C)C1 [Example 234, (S)-6-(1-((4-acetylmorpholin-2-yl)methyl)-5-methyl-1H-pyrazol-4-yl)-4-((3-fluoropyridin-2-yl)thio)pyrazolo[1,5-a]pyridine-3-carbonitrile] has an IC50 of 5 nM. Work on Cc1c(-c2cc(Sc3ncccc3F)c3c(C#N)cnn3c2)cnn1C[C@H]1[C@@H]2CCC[C@@H]21 [Example 235, 6-(1-(((1R,5S,6r)-bicyclo[3.1.0]hexan-6-yl)methyl)-5-methyl-1H-pyrazol-4-yl)-4-((3-fluoropyridin-2-yl)thio)pyrazolo[1,5-a]pyridine-3-carbonitrile] yielded an IC50 of 4 nM.
